In US6251943A, “Method of treating or preventing septic shock by administering a MEK inhibitor” (Warner-Lambert Company, priority 1999, dated 2001):

What follows are compounds tested against MEK (Homo sapiens, UniProt Q02750) (assay: In vitro MEK inhibition (cascade assay for inhibitors of the MAP kinase pathway / in vitro MEK assay)). Conditions: Table 1.
Type: biochemical
Protocol: Incorporation of ^32 P into myelin basic protein (MBP) was assayed in the presence of a glutathione S-transferase fusion protein containing p44MAP kinase (GST-MAPK) and a glutathione S-transferase fusion protein containing p45MEK (GST-MEK). The assay solution contained 20 mM HEPES, pH 7.4, 10 MM MgCl2, 1 mM MnCl2, 1 mM EGTA, 50 μM [γ-^32 P]ATP, 10 μg GST-MEK, 0.5 μg GST-MAPK and 40 μg MBP in a final volume of 100 μL. […] Compounds were assessed at 10 μM for ability to inhibit incorporation of ^32 P.
To ascertain whether compounds were inhibiting GST-MEK or GST MAPK, two additional protocols were employed. In the first protocol, compounds were added to tubes containing GST-MEK, followed by addition of GST-MAPK, MBP and [γ-^32 P]ATP. In the second protocol, compounds were added to tubes containing both GST-MEK and GST-MAPK, followed by MBP and [γ-^32 P]ATP.
For evaluation of direct MEK activity, 10 μg GST-MEK1 was incubated with 5 μg of a glutathione S-transferase fusion protein containing p44MAP kinase with a lysine to alanine mutation at position 71 (GST-MAPK-KA). This mutation eliminates kinase activity of MAPK, so only kinase activity attributed to the added MEK remains. Incubations were 15 minutes at 30° C in a final volume of 50 μL containing 50 mM Tris (pH 7.5), […], […], and 10 μM [γ-^32 P]ATP. The reaction was stopped by addition of Laenunli SDS sample buffer and phosphorylated GST-MAPK-KA was resolved by electrophoresis on a 10% polyacrylamide gel. Radioactivity incorporated into GST-MAPK-KA was determined by autoradiography, and subsequently by excision of the bands followed by scintillation counting. […] When these sites are phosphorylated, MEK activity is increased. Phosphorylation of these sites can be mimicked by mutation of the serine residues to glutamate. For this assay, 5 μg GST-MEK-2E was incubated with 5 μg GST-MAPK-KA for 15 minutes at 30° C. in the same reaction buffer as described above. Reactions were terminated and analyzed as above.

MEK, sequence (Q02750 whole entry): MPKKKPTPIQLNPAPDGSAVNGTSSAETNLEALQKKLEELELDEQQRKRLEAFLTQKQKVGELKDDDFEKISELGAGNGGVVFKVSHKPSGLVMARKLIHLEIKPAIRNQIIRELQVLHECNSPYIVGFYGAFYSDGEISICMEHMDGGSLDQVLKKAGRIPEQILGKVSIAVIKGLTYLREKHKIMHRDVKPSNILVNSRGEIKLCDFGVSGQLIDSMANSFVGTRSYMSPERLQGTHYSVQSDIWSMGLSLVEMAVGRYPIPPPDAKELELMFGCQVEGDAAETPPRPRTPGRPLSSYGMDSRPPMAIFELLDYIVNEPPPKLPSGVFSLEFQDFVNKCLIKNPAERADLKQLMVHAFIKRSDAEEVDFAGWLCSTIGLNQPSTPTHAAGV

IC50	Structure (SMILES)
105000 nM	Cc1cc(I)ccc1Nc1cc([N+](=O)[O-])ccc1C(=O)O [Example 30, 2-(4-Iodo-2-methyl-phenylamino)-4-nitro-benzoic acid]
> 1000 nM	CCN(CC)C(=O)c1ccc(F)cc1Nc1ccc(I)cc1C [Example 43, N,N-Diethyl-4-fluoro-2-(4-iodo-2-methyl-phenylamino)-benzamide]
555 nM	Cc1cc(I)ccc1Nc1ccc(F)cc1C(=O)NOCc1ccccc1 [Example 186, N-Benzyloxy-5-fluoro-2-(4-iodo-2-methyl-phenylamino)-benzamide]
12800 nM	Cc1cc(I)ccc1Nc1ccc([N+](=O)[O-])cc1C(=O)NCCO [Example 195, N-(2-Hydroxy-ethyl)-2-(4-iodo-2-methyl-phenylamino)-5-nitro-benzamide]

Same assay, conditions: Table 2

IC50	Structure (SMILES)
72 nM	Cc1cc(Br)ccc1Nc1cc(F)ccc1C(=O)NO [Example 3a, 2-(4-bromo-2-methyl-phenylamino)-4-fluoro-N-hydroxy-benzamide]
334 nM	Cc1cc(Cl)ccc1Nc1cc(F)ccc1C(=O)NO [Example 11a, 4-Fluoro-N-hydroxy-2-(4-cluoro-2-methyl-phenylamino)-benzamide]
18 nM	Cc1cc(I)ccc1Nc1c(C(=O)NOCC2CC2)cc(Br)c(F)c1F [Example 58a, 5-Bromo-N-cyclopropylmethoxy-3,4-difluoro-2-(4-iodo-2-methyl-phenylamino)]
280 nM	Cc1cc(I)ccc1Nc1cc(F)ccc1C(=O)NOCc1ccccc1 [Example 77a, 4-Fluoro-2-(4-iodo-2-methyl-phenylamino)-N-phenylmethoxy-benzamide]

These compounds were tested on MAP kinase (assay: "In Vivo" activity (whole cell MAP kinase assay)). Conditions: Table 2.
Type: cell-based
Protocol: To determine if compounds were able to block activation of MAP kinase in whole cells, the following protocol was used: Cells were plated in multi-well plates and grown to confluence. Cells were then serum-deprived overnight. Cells were exposed to the desired concentrations of compound or vehicle (DMSO) for 30 minutes, followed by addition of a growth factor, for example, PDGF (100 ng/mL). After a 5-minute treatment with the growth factor, cells were washed with PBS, then lysed in a buffer consisting of 70 mM NaCl, 10 mM HEPES (pH 7.4), 50 mM glycerol phosphate, and 1% Triton X-100. Lysates were clarified by centrifugation at 13,000×g for 10 minutes. Five micrograms of the resulting supernatants were incubated with […] microtubule associated protein-2 (Map2) for 15 minutes at 30° C. in a final volume of 25 μL containing 50 mM Tris (pH 7.4), 10 mM MgCl2, 2 mM EGTA and 30 μM [γ-^32 P]ATP. Reactions were terminated by addition of Laemmli sample buffer. Phosphorylated Map2 was resolved on 7.5% acrylamide gels and incorporated radioactivity determined by autoradiography and subsequent excision of the bands followed by scintillation counting.
The in vitro and in vivo biological activity of several representative compounds of Formula I and II in the foregoing assays is presented in Tables 1 and 2.

IC50	Structure (SMILES)
50 nM	Cc1cc(I)ccc1Nc1cc(F)ccc1C(=O)NO [Example 1a, 4-Fluoro-N-hydroxy-2-(4-iodo-2-methyl-phenylamino)-benzamide]
30 nM	Cc1cc(I)ccc1Nc1c(C(=O)NO)cc(Br)c(F)c1F [Example 2a, 5-Bromo-3,4-difluoro-N-hydroxy-2-(4-iodo-2-methyl-phenylamino)-benzamide]
3000 nM	Cc1cc(Br)ccc1Nc1cc(F)ccc1C(=O)NO [Example 3a, 2-(4-bromo-2-methyl-phenylamino)-4-fluoro-N-hydroxy-benzamide]
1000 nM	Cc1cc(I)ccc1Nc1ccc(Cl)cc1C(=O)NO [Example 4a, 5-Chloro-N-hydroxy-2-(4-iodo-2-methyl-phenylamino)-benzamide]
~30000 nM	Cc1cc(I)ccc1Nc1ccc(Cl)cc1C(=O)N(C)O [Example 5a, 5-Chloro-N-hydroxy-2-(4-iodo-2-methyl-phenylamino)-N-methyl-benzamide]
~30000 nM	Cc1cc(I)ccc1Nc1ccc(Cl)cc1C(=O)NOC1CCCCO1 (stereo not shown) [Example 6a, 5-Chloro-2-(4-iodo-2-methyl-phenylamino)-N-(terahydropyran-2-yloxy)benzamide]
< 30000 nM	CONC(=O)c1cc(Cl)ccc1Nc1ccc(I)cc1C [Example 7a, 5-Chloro-2-(4-iodo-2-methyl-phenylamino)-N-methoxybenzamide]
3000 nM	Cc1cc(F)ccc1Nc1cc(F)ccc1C(=O)NO [Example 8a, 4-Fluoro-N-hydroxy-2-(4-fluoro-2-methyl-phenylamino)-benzamide]
1000 nM	Cc1ccccc1Nc1cc(F)ccc1C(=O)NO [Example 9a, 4-Fluoro-N-hydroxy-2-(2-methylphenylamino)-benzamide]
500 nM	Cc1cc(Cl)ccc1Nc1cc(F)ccc1C(=O)NO [Example 11a, 4-Fluoro-N-hydroxy-2-(4-cluoro-2-methyl-phenylamino)-benzamide]
> 2000 nM	CONC(=O)c1ccc(F)c(F)c1Nc1ccc(I)cc1C [Example 14a, 3,4-Difluoro-2-(4-iodo-2-methyl-phenylamino)-N-N-methoxy-benzamide]
170 nM	Cc1cc(I)ccc1Nc1cc(F)ccc1C(=O)NOCc1ccoc1 [Example 20a, 4-Fluoro-N-(furan-3-ylmethoxy)-2-(4-iodo-2-methyl-phenylamino)-benzamide]
120 nM	CC=CCONC(=O)c1cc(Br)c(F)c(F)c1Nc1ccc(I)cc1C [Example 24a, 5-Bromo-N-(but-2-enyloxy)-3,4-difluoro-2-(4-iodo-2-methyl-phenylamino)-benzamide]
730 nM	C#CCCONC(=O)c1ccc(F)c(F)c1Nc1ccc(I)cc1C [Example 29a, N-(But-3-ynyloxy)-3,4-difluoro-2-(4-iodo-2-methyl-phenylamino)-benzamide]
1500 nM	Cc1cc(I)ccc1Nc1c(C(=O)NOCC#Cc2cccc(F)c2)ccc(F)c1F [Example 34a, 3,4-Difluoro-N-[3-(3-fluoro-phenyl)-prop-2-ynyloxy]-2-(4-iodo-2-methyl-phenylamino)-benzamide]
70 nM	Cc1cc(I)ccc1Nc1c(C(=O)NOCC#Cc2ccccc2F)ccc(F)c1F [Example 36a, 3,4-Difluoro-N-[3-(2-fluoro-phenyl)-prop-2-ynyloxy]-2-(4-iodo-2-methyl-phenylamino)-benzamide]
125 nM	CCONC(=O)c1ccc(F)c(F)c1Nc1ccc(I)cc1C [Example 40a, N-Ethoxy-3,4-difluoro-2-(4-iodo-2-methyl-phenylamino)-benzamide]
100 nM	CCCONC(=O)c1ccc(F)c(F)c1Nc1ccc(I)cc1C [Example 43a, 3,4-Difluoro-2-(4-iodo-2-methyl-phenylamino)-N-propoxy-benzamide]
130 nM	Cc1cc(I)ccc1Nc1c(C(=O)NOC(C)C)ccc(F)c1F [Example 47a, 3,4-Difluoro-2-(4-iodo-2-methyl-phenylamino)-N-isopropoxy-benzamide]
220 nM	Cc1cc(I)ccc1Nc1c(C(=O)NOC2CCC2)ccc(F)c1F [Example 50a, N-Cyclobutyloxy-3,4-difluoro-2-(4-iodo-2-methyl-phenylamino)-benzamide]
14 nM	Cc1cc(I)ccc1Nc1c(C(=O)NOCC2CC2)cc(Br)c(F)c1F [Example 58a, 5-Bromo-N-cyclopropylmethoxy-3,4-difluoro-2-(4-iodo-2-methyl-phenylamino)]
130 nM	C=C(C)CONC(=O)c1ccc(F)c(F)c1Nc1ccc(I)cc1C [Example 66a, 3,4-Difluoro-2-(4-iodo-2-methyl-phenylamino)-N-(2-methyl-allyloxy)-benzamide]
390 nM	C#CCONC(=O)c1ccc(F)c(F)c1Nc1ccc(I)cc1C [Example 71a, 3,4-Difluoro-2-(4-iodo-2-methyl-phenylamino)-N-(prop-2-ynyloxy)-benzamide]
